The source of these data is US5593835A, “Methods and kits for RNA binding compounds” (President and Fellows of Harvard College, priority 1995, dated 1997).

Where two headings read alike, the source gives them in different places.

Test [1] deals with J6a1 RNA (SEQ ID NO: 5), synthetically derived from the predicted structures. Kind of test: Fluorescence binding measurements, J6a1 RNA. As for the experimental part:
(§1) The binding of tobramycin to two cloned RNAs X1 (SEQ ID NO:2) and J6 (SEQ ID NO:5), representative of both classes of consensus sequences, was measured using the fluorescence techniques described in the exemplification.
(§2) *synthetically derived from the predicted structures
(§3) Steady state fluorescence measurements were performed on a double beam fluorescence spectrometer (Perkin-Elmer Model 512, Norwalk, Conn.). The excitation wavelength was 341 nm. All measurements were done at 20° C. in 140 mM NaCl, 5 mM KCl, 1 mM CaCl2, 1 mM MgCl2, and 20 mM HEPES, pH 7.4. The KD of the PYT and the RNA aptamer was calculated by the curve fitting of the fluorescence intensity as a function of RNA concentration, using the following equation
(§4) Competition binding measurements of antibiotics with RNA and PYT were performed at constant concentrations of PYT and RNA by monitoring fluorescence intensity changes as a function of changing concentrations of the antibiotics (a standard fluorescence curve). The KD s for the antibiotics were calculated by the curve fitting of the fluorescence intensity of PYT as a function of antibiotic concentration, using the following equation: […]

In test [2] the target is X1s1 RNA (SEQ ID NO: 3), synthetically derived from the predicted structures. Description: Fluorescence binding measurements, X1s1 RNA. As for the experimental part: as §1, §2, §3, §4
Test [3] concerns the target random selected RNA pool (low stringency tobramycin column). Description: Fluorescence assay, average binding of the random selected RNA pool. The note with it: overall selected pool mixture. As for the experimental part: To determine whether the W13 RNA clone is representative of the average binding capacity of the random selected RNA pool, the average KD values for the random selected pool were measured. […] Therefore, the W13 RNA is representative of the average binding capacity of the random selected pool.
as §3, §4

Another test addresses RRE region of HIV RNA. Description: Fluorescence binding and competitive binding to RRE RNA. To be noted: competition, 100 nM RNA, 15 nM fluorescent tobramycin, 20° C., pH 7.4; read-out: Dissociation Constant (KD) RRE RNA. As for the experimental part:
(§5) In order to quantitatively determine whether fluorescently labelled tobramycin and other antibiotics bind directly to the RRE region and/or to other regions of the HIV RNA, and with what affinity, the RRE and TAR regions of HIV RNA were prepared and used in the method of the invention as target RNAs.
For binding studies, different concentrations of RRE RNA (from 0 to 300 nm) were mixed with a constant concentration (15 nM) PYT in Binding buffer (140 mM NaCl, 1 mM MgCl2, 20 mM HEPES, pH 7.4), 2 ml total volume, for 1-5 min. at 20° C. in a semimicro-cell cuvette. The fluorescence was measured on a Perkin-Elmer Model 512 double beam fluorescence spectrophotometer. The excitation wavelength used was 330 nm. The intensities of fluorescence emission at 390 nm were used to calculate dissociation constants. Generally 8 to 12 points were used for calculation.
(§6) In other competitive binding studies, TAR or RRE RNA was added at a constant concentration of 100 nM±5% and PYT at 15 nM. Different concentrations of competitive antibiotic (tobramycin (o-60 μM), gentamicin C (0-100 μM), neomycin B (0-4 μM), or lividomycin A (0-100 μM) or Rev protein (0-6 μM) were mixed with constant concentrations of RNA (100 nM TAR or RRE) and C1PYT (15 nM), in Binding buffer (140 mM NaCl, 5 mM KCl, 1 mM MgCl2, 20 mM HEPES, pH 7.4), 2 ml total volume, for 1-5 min. at 20° C. in a semimicrocell cuvette. The fluorescence was measured on a Perkin-Elmer Model 512 double beam fluorescence spectrophotometer. The excitation wavelength used was 330 nm. The intensities of fluorescence emission at 390 nm were used to calculate dissociation constants. Generally 8 to 12 points were used for calculation.
Wild type and mutant RRE RNAs were transcribed in vitro by T7 RNA polymerase using synthetic oligonucleotide templates, as described by Milligan et al. (Meth. Enzymol. (1989) 180: 51-62).
as §4

Another test has as its target TAR region of HIV RNA. Description: Fluorescence binding and competitive binding to TAR RNA. To be noted: competition, 100 nM RNA, 15 nM fluorescent tobramycin, 20° C., pH 7.4; read-out: Dissociation Constant (KD) TAR RNA. As for the experimental part: as §5, §6
Competition binding measurements of antibiotics with RNA and PYT were performed at constant concentrations of PYT and RNA by monitoring fluorescence intensity changes as a function of changing concentrations of the antibiotics (a standard fluorescence curve). […]

The target in the next test is J6 RNA (SEQ ID NO:5). Description: Fluorescence binding measurements, J6 RNA. As for the experimental part: as §1, §3, §4
The target in test [4] is W13 RNA having SEQ ID NO:1. Description: Fluorescence (PYT quenching) titration and competition binding to W13 RNA. The note with it: fluorescence; competition with PYT (150 nM PYT, 300 nM W13), 20° C., pH 7.4; N.B. = no measurable binding. As for the experimental part: To study the binding behavior of clone W13, a fluorescently labelled pyrene-conjugated tobramycin derivative "PYT" was prepared.
For competitive binding studies, different concentrations of antibiotic (glucosamine (0-10 mM), erythromycin (0-6 mM), gentamicin C (0-700 μM), or neomycin B (0-650 μM)), were mixed with constant concentrations of RNA (300 nM W13) and PYT (150 nM), in Binding buffer (140 mM NaCl, 5 mM KCl, 1 mM MgCl2, 1 mM CaCl2, 20 mM HEPES, pH 7.4), 750 μl total volume, for 1-5 min. at 20° C. in a semimicro-cell cuvette. The fluorescence was measured on a Perkin-Elmer Model 512 double beam fluorescence spectrophotometer. The excitation wavelength used was 341 nm. The intensities of fluorescence emission at 380 nm were used to calculate dissociation constants. Generally 8 to 10 points were used for calculation.
as §3
(assuming a 1:1 complex): I=Io +0.5Δε ([PYT]o
-(([PYT]o +[RNA]o KI)^2 -4[PYT]o [RNA]o)^0.5)
Competition binding measurements of antibiotics with RNA and PYT were performed at constant concentrations of PYT and RNA by monitoring fluorescence intensity changes as a function of changing concentrations of the antibiotics (a standard fluorescence curve). The KD s for the antibiotics were calculated by the curve fitting of the fluorescence intensity of PYT as a function of antibiotic concentration, using the following equation:
I=Io +Δε[PYT.circle-solid.RNA]
[PYT.circle-solid.RNA]=0.5(([PYT]o +[RNA]o)([RNA]o
+KD)+KI ([T]o +[RNA]o +KD)-((([PYT]o
+[RNA]o)([RNA]o +KD)+KI ([T]o +[RNA]o
+KD))^2 -4([RNA]o +KD) [PYT]o [RNA]o
([RNA]o +KD))^0.5)([RNA]o +KD) (equation 2)
KD and KI are the dissociation constants for the antibiotic and PYT respectively.
[T]o is the total concentration of antibiotic added. Measurements were taken at least twice for each measured KD.

Setting [5] is: K1 - high affinity, read-out: Dissociation Constants K1(TOB).
[6] abbreviates: K2 - low affinity, read-out: Dissociation Constants K2(TOB).

For `NC[C@H]1O[C@H](O[C@H]2[C@H](O)[C@@H](O[C@H]3O[C@H](CO)[C@@H](O)[C@H](N)[C@H]3O)[C@H](N)C[C@@H]2N)[C@H](N)C[C@@H]1O` [tobramycin], the Kd in test [1] (setting [5]) was 9 ± 3 nM; in test [1] (setting [6]) it was 2700 ± 300 nM; in test [2] (setting [5]) it was 0.012 ± 0.005 µM; in test [2] (setting [6]), 13.2 ± 0.5 µM; in test [3], 8.8 ± 0.3 µM; on RRE region of HIV RNA, 2320 ± 280 nM. Further, the Kd on TAR region of HIV RNA is 19.1 ± 1.1 µM; on J6 RNA (SEQ ID NO:5) (setting [5]) it was 0.002 ± 0.001 µM; on J6 RNA (SEQ ID NO:5) (setting [6]), 6 ± 0.4 µM; in test [4] it was 4.3 ± 0.7 µM.
